Experimental data from US20060240535A1, “Carbonyl reductase from lactococcus lactis” (GEORGIA TECH RESEARCH CORPORATION, priority 2004, published 2006).

What was measured:
[1] = system: carbonyl reductase from Lactococcus lactis; assay: CRLL activity assay (decrease of NADPH absorption); substrate table of the isolated carbonyl reductase; assay type: biochemical; conditions: Substrate (20 mM); for spec. Act. (U/mg): activity per protein (0.37, 5.5 or 6.6 mg/mL)
Text: The construct crll-pkk223-3 as well as crll-his-pkk223-3 were both transformed separately into the E. coli host strain HB101 for expression.

[2] = target: T1, carbonyl reductase from Lactococcus lactis (LL-CR) (Lactococcus lactis, UniProt Q9CJ60); assay: Oxidation of secondary alcohols to ketones by LL-CR (enantiospecificity); assay type: biochemical
[3] = target: T1, carbonyl reductase from Lactococcus lactis (LL-CR); assay: Purified CRLL activity in aqueous-organic tunable solvents (OATS); assay type: biochemical
Description: As LL-CR requires organic buffers for stability, such as HEPES or triethanolamine, runs were conducted in partially organic systems using a buffer system of 200 mM NH4CHO3 and 50 mM HEPES at pH 7.0.

[4] = target: T1, carbonyl reductase from Lactococcus lactis (LL-CR); assay: Enzyme characterisation of purified LL-CR (KM, vmax, kcat, pH and T optima); assay type: biochemical
[5] = substrate: CC(=O)c1ccccc1; assay: as above; assay type: biochemical, Lactococcus lactis; conditions: other: pH 7.0 and 30° C.

CC(O)CO (centres unmarked) [1,2-propanediol]
Activity (U/mL) [1]: 0.025 U/mL | spec. Act. (U/mg) [1]: 0.06757 U/mg

O=C1CCCC2CCCCC12 (centres unmarked) [1-decalone]
Activity (U/mL) [1]: 5.29 U/mL | spec. Act. (U/mg) [1]: 14.3 U/mg

O=C1CCc2ccccc21 [1-indanone]
spec. Act. (U/mg) [1]: 0 U/mg

CC(=O)CC(C)=O [2,4-pentane-dione]
Activity (U/mL) [1]: 90.77 U/mL | spec. Act. (U/mg) [1]: 13.75 U/mg

CCCCC(C)=O [2-hexanone]
Activity (U/mL) [1]: 1.28 U/mL | spec. Act. (U/mg) [1]: 3.459 U/mg

CC1CC(=O)CC(C)(C)C1 (centres unmarked) [3,3,5-trimethyl-CHone]
Activity (U/mL) [1]: 0.24 U/mL | spec. Act. (U/mg) [1]: 0.6486 U/mg

CC(=O)C(C)C [3-methyl-2-butanone]
Activity (U/mL) [1]: 12.06 U/mL | spec. Act. (U/mg) [1]: 32.59 U/mg

CC(=O)CC(C)C [4-methyl-2-pentanone]
Activity (U/mL) [1]: 21.7 U/mL | spec. Act. (U/mg) [1]: 3.288 U/mg

C[C@@H](O)c1ccccc1 [(R)-1-phenyl-1-ethanol]
oxidation of secondary alcohol to the respective ketone [2]: can oxidize

CCCC[C@@H](C)O [(R)-2-hexanol]
oxidation of secondary alcohol to the respective ketone [2]: can oxidize

COC(=O)CC(C)=O [Methyl acetoacetate]
Activity (U/mL) [1]: 36.7 U/mL | spec. Act. (U/mg) [1]: 5.561 U/mg

COC(=O)C(=O)c1ccccc1 [Methyl benzoylformate]
Activity (U/mL) [1]: 3.86 U/mL | spec. Act. (U/mg) [1]: 0.5848 U/mg

CC(=O)COc1ccccc1 [Phenoxy-2-propanone]
Activity (U/mL) [1]: 10.61 U/mL | spec. Act. (U/mg) [1]: 28.68 U/mg

CC(C)=O [acetone]
Activity (U/mL) [1]: 8.36 U/mL | spec. Act. (U/mg) [1]: 22.59 U/mg

CC(=O)CCC(C)=O [acetonylacetone]
Activity (U/mL) [1]: 57.88 U/mL | spec. Act. (U/mg) [1]: 8.77 U/mg

CC(=O)c1ccccc1 [acetophenone]
Activity (U/mL) [1]: 53 U/mL | spec. Act. (U/mg) [1]: 8.03 U/mg

O=Cc1ccccc1 [benzaldehyde]
Activity (U/mL) [1]: 8.3 U/mL | spec. Act. (U/mg) [1]: 1.258 U/mg

O=C(O)C(=O)c1ccccc1 [benzoylformate]
Activity (U/mL) [1]: 0 U/mL | spec. Act. (U/mg) [1]: 0 U/mg

CCCC=O [butyraldehyde]
Activity (U/mL) [1]: 12.7 U/mL | spec. Act. (U/mg) [1]: 34.32 U/mg

O=C1CCCCC1 [cyclohexanone]
Activity (U/mL) [1]: 49 U/mL | spec. Act. (U/mg) [1]: 7.424 U/mg

OCCOCCO [diethyleneglycol]
Activity (U/mL) [1]: 0.38 U/mL | spec. Act. (U/mg) [1]: 1.027 U/mg

CCOCCO [ethoxyethanol]
Activity (U/mL) [1]: 0.0128 U/mL | spec. Act. (U/mg) [1]: 0.03459 U/mg

CCCC(=O)CC(=O)OCC [ethyl 3-oxohexanoate]
Activity (U/mL) [1]: 9.64 U/mL | spec. Act. (U/mg) [1]: 26.05 U/mg

CCOC(=O)CC(C)=O [ethyl acetoacetate]
Activity (U/mL) [1]: 7.07 U/mL | spec. Act. (U/mg) [1]: 19.11 U/mg

CCOC(=O)CC(=O)c1ccccc1 [ethyl benzoylacetate]
Activity (U/mL) [1]: 4.98 U/mL | spec. Act. (U/mg) [1]: 13.46 U/mg

CCOC(=O)C(=O)c1ccccc1 [ethyl benzoylformate]
Activity (U/mL) [1]: 11.25 U/mL | spec. Act. (U/mg) [1]: 1.705 U/mg

CCOC(=O)C(C)=O [ethyl pyruvate]
Activity (U/mL) [1]: 16.32 U/mL | spec. Act. (U/mg) [1]: 2.473 U/mg

CCCCCC=O [hexylaldehyde]
Activity (U/mL) [1]: 45.82 U/mL | spec. Act. (U/mg) [1]: 6.942 U/mg

CC(=O)CO [hydroxyacetone]
Activity (U/mL) [1]: 0.77 U/mL | spec. Act. (U/mg) [1]: 2.081 U/mg

CC(C)O [isopropanol]
specific activity of LL-CR on isopropanol ([3]; regeneration substrate, extends beyond 50% solvent content): 2-4 U/mg protein

CC1(C)COC(=O)C1=O [ketopantolactone]
Activity (U/mL) [1]: 9.49 U/mL | spec. Act. (U/mg) [1]: 25.65 U/mg

CCCCCCCC=O [octylaldehyde]
Activity (U/mL) [1]: 10.93 U/mL | spec. Act. (U/mg) [1]: 1.656 U/mg

CC(=O)C(C)(C)C [pinacolone]
Activity (U/mL) [1]: 22.5 U/mL | spec. Act. (U/mg) [1]: 3.409 U/mg

CCC=O [propionaldehyde]
Activity (U/mL) [1]: 69 U/mL | spec. Act. (U/mg) [1]: 10.45 U/mg

CCC(=O)c1ccccc1 [propiophenone]
Activity (U/mL) [1]: 2.2 U/mL | spec. Act. (U/mg) [1]: 0.4 U/mg

t-butylcyclohexanone
Activity (U/mL) [1]: 0 U/mL | spec. Act. (U/mg) [1]: 0 U/mg

tetralone
Activity (U/mL) [1]: 3.2 U/mL | spec. Act. (U/mg) [1]: 0.4848 U/mg

B1: carbonyl reductase from Lactococcus lactis (LL-CR) (Lactococcus lactis subsp. lactis Il1403) (protein)
chain: MKTLITGENKGIGFALAQNLGHRGYEVLVGARNETRGQEAVEKLKAEGITAKFVKVDLDDLNQLTSLSALTDIDLLINNAGISGNIHSDKGHLDMEKSAFDYSTTDLEETIKTNFLGTHAVIKELLPHSLTENAKIINITVPVSQEYWMPLAYVTSKAAQNAMTFAFGHQFKKDKSKKQIFAVMPGAVATDLNGAKVGDSPFVKSPEETAQMISKFIFDDKNHNAQIINFDGTIYDNYEPGLRNKVIKDVAKNGLKRKFKK
organic solvent content at which enzyme is active ([3]; 200 mM NH4HCO3/50 mM HEPES, pH 7.0, 30° C.): up to 50% | organic solvent content at which stable ([3]; acetonitrile, dioxane, or tetrahydrofuran): below 60% | T optimum [4]: 40 °C | pH optimum [4]: 6.5 | calculated kcat ([4]; pH 7.0 and 30° C.): 24 s⁻¹ | vmax ([4]; pH 7.0 and 30° C.): 80 U/mg pure protein | Km [5]: 500 µM
